According to patent US6291530A, “Aryl-substituted acrylamides with Leukotriene B4 (LTB-4) receptor antagonist activity” (Novartis AG, priority 1999, dated 2001):

Tests used:
[1] = system: arachidonic acid-induced mouse ear inflammation; assay: Arachidonic acid-induced mouse ear inflammation model; assay type: in vivo
Method: The methodology used is essentially that described by Young et al., J. Invest. Dermatol. 82, 367-371 (1984). Female mice (A/J, Jakson Labs., Bar Harbor, Me.) weighing 20 gm are divided into groups consisting of six mice per treatment group. They are fasted overnight. Arachidonic acid (2 mg in 15 μl acetone) (Sigma, St Louis, Mo.) is applied to the inner surface of the right ear. The left ear received 15 μl of acetone. […] […] Edema is determined by subtracting the weight of the left ear punch from that of the right ear. As the marker for neutrophil infiltration, myeloperoxidase activity is measured as described by Bradley et al., J. Invest. Dermatol., Vol. 78, p. 206 (1982). The right ear punches from the both the vehicle and compound treated groups are used. The percentage of inhibition is calculated by comparing the myeloperoxidase activity of the compound treated groups with those of the vehicle treated group.

[2] = system: LTB-4-induced intracellular calcium rise in human neutrophils; assay: Inhibition of the LTB-4-induced intracellular calcium rise in human neutrophils; assay type: cell-based; settings: Neutrophil, read-out: Concentration at which calcium rise is inhibited
Method: (§1) LTB-4 is purchased as a solution in either ethanol or DMSO (Biomol, Plymouth Meeting, Pa.) and diluted into Hank's balanced Salt Solution (HBSS) before use. For in vitro tests, test compounds are dissolved in DMSO to produce stock solution of 10 mM. Dilutions are made so that the final concentration of DMSO is 0.35%.
Inhibition of LTB-4 is determined by measuring the inhibition of the LTB-4-induced intracellular calcium rise in human neutrophils. Increases in intracellular Ca++ are measured as described by Seligmann et al., Agents and Actions, Vol. 21, p. 375 (1987). Neutrophils are purified from citrated human venous blood by sedimentation in HESPAN as described above. Neutrophils are isolated from the resulting pellet by centrifugal elutriation (Berkow et al., J. Lab. Clin. Med., Vol. 104, p. 698, 1984). Except were noted the neutrophils are incubated with acetoxymetbyl ester of Fura-2 (0.2 μM)(Molecular Probes Inc.) for 30 minutes at 37° C. in HEPES-buffered Hank's solution containing Ca++ and Mg++. The Fura-2 loaded cells are washed and stored on ice at a concentration of 2×10^6 cells/ml in 10 mM HEPES-buffered HBSS without Ca++ and Mg++. Fifteen minutes before assay, 1.5 ml of the cell suspension is mixed with 10 μl of 0.15 M Ca++ and 0.15 M Mg++ by stirring at 37° C. Compounds are added 40 seconds before the addition of 1 nM LTB-4. The change in fluorescence was followed using a DMX 1000 spectrofluorometer (SLM-Aminco Instruments, Urbana Ill.).

[3] = biological target: T1, LTB-4 receptor (Homo sapiens, UniProt Q15722); assay: LTB-4 receptor binding assay: binding of [H^3]-LTB-4 to intact human neutrophils; settings: [H^3]-LTB-4, intact human neutrophils
T1 construct: to intact human neutrophils; endogenous in cells; host or cells: intact neutrophils prepared from human venous blood
Method: LTB-4 receptor binding is dete mined in the following assay involving receptor binding of [H^3 ]-LTB-4 to intact human neutrophils.
as §1
Neutrophils are prepared from […] human venous blood. Blood (25 ml) is mixed with HESPAN (15 ml)(DuPont, Wilmington, Del.) and allowed to stand at room temperature for 40 minutes. The supernatant is removed and centrifuged for 10 minutes at 400×g. The resulting pellet is resuspended in phosphate-buffered saline without calcium and magnesium (GIBCO, Grand Islands N.Y.). Thirty-five ml of the resuspended cells is layered over 15 ml of Ficoll-Paque (Sigma, St Louis, Mo.) and then centrifuged for 15 minutes at 420×g. The resulting cell pllet is resuspended in 10 ml of phosphate-buffered saline without calcium and magnesium. Twenty-five ml of deionized water are added to the suspension for 20 seconds followed by the same volume of buffer at twice the normal concentration. The suspension is centrifuged for 5 minutes at 200×g,and the pellet resuspended in Hank's Balanced Salt Solution (HBSS).
Binding of [H^3 ]-LTB-4 to neutrophils is measured as described by Gorman and Lin, Methods Enzymol. 141: 372-378 (1987) and Jackson et al., J. Pharmacol.Exp. Ther., Vol. 262, p. 80 (1992). Intact human ntutrophils (3×106) are added to HBSS containing 0.5 nM [H^3 ]-LTB-4 (specific activity 32 Ci/mmol, DuPont-NEN, Boston, Mass.) and compound (final volume 0.5 ml). After incubating for 20 minutes at 0° C., the bound radioactivity is collected on Whatman GF/C filters by vacuum filtration using a Brandel harvester. The filters are washed twice with ice cold HBSS. Filters are counted using Formula-989 scintillation cocktail (DuPont-NEN, Boston, Mass.). Non-specific binding is determined in the presence of 300 nM LTB-4 (Biomol Res. Labs, Plymouth Meeting, Pa.).

[4] = 3 mg/Kg p.o., 1.5 hours post administration
[5] = 10 mg/Kg p.o., 18 hours post administration

T1 sequence (Q15722 whole entry): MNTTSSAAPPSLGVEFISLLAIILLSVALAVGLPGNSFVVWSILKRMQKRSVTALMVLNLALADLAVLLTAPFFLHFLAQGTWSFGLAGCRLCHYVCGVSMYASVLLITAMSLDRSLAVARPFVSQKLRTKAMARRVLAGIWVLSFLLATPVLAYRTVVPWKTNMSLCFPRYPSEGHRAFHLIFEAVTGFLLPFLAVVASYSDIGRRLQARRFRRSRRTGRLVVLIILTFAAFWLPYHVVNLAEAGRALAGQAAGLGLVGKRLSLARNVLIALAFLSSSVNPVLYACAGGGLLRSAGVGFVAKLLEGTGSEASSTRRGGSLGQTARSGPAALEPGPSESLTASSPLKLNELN

SMILES | Inhibition of edema [1, 4] | Inhibition of myeloperoxidase activity [1, 4] | Inhibition of edema [1, 5] | Inhibition of myeloperoxidase activity [1, 5] | IC50 [2] | IC50 [3]
CCN(CC)C(=O)/C=C(\C)c1ccc(OCc2c(F)cccc2F)c(CC(=O)O)c1 [Example 8a, (E)-[5-(2-diethylcarbamoyl-1-methyl-vinyl)-2-(2,6-difluorobenzyloxy)-phenyl]-acetic acid] | inhibit | inhibit | inhibit | inhibit | ~22 nM | ~87 nM
CCN(CC)C(=O)/C=C(\C)c1ccc(OCc2c(F)cccc2F)c(OCC(=O)O)c1 [Example 2y, (E)-[5-(2-Diethylcarbamoyl-1-methylvinyl)-2-(2,6-difluorobenzyloxy)-phenoxy]-acetic acid] | inhibit | inhibit | inhibit | inhibit | ~18 nM | ~48 nM
CCN(CC)C(=O)/C=C(\C)c1ccc(OC(C)c2ccccc2)c(CC(=O)O)c1 (stereo not drawn) [Example 8b, (E)-[5(2-diethylcarbamoyl-1-methylvinyl)-2-(1-phenyl-ethoxy)-phenyl]-acetic acid] | inhibit | inhibit | inhibit | inhibit | ~8 nM | ~74 nM
